In US20140377265A1, “ANTICOAGULANT ANTIDOTES” (BOEHRINGER INGELHEIM INTERNATIONAL GMBH, priority 2011, published 2014):

How the values were obtained:
[1] = tested on: thrombin clotting time in human plasma; assay: Thrombin clotting time assay, dabigatran standard curve in human plasma; assay type: biochemical
Description: Briefly human plasma is obtained by taking whole blood into 3.13% sodium citrate. This is then centrifuged to obtain platelet free plasma and transferred to a separate tube and frozen until required on the day of the assay. Plasma is thawed at 37° C. on the day of the assay.
The thrombin clotting time is performed as follows. First thrombin is diluted to manufacturer's specification (3 IU/mL thrombin) in the buffer provided (Dade Behring Test kit) and prewarmed to 37° C. It is used within 2 hrs of being prepared. All assays were performed on a commercially available CL4 clotting machine (Behnk Electronics, Norderstadt, Germany). Fifty μL of plasma is pipetted into provided cuvettes with a magnetic stirrer and allowed to stir for 2 min in the well preheated to 37° C. in the CL4 machine. At this point 100 μL of the thrombin solution is added and the time required for the plasma sample to clot is recorded automatically by the CL4.

[2] = tested on: activated partial thromboplastin time; details: cited from earlier work

Compound | thrombin clotting time ([1]; 200 nM dabigatran preincubated with human plasma) [s] | elevation in clotting time over baseline ([1]; 200 nM dabigatran, human plasma) [fold] | increase in clotting time over baseline ([1]; 500 nM dabigatran, human plasma) [fold] | prolongation of the activated partial thromboplastin time compared with dabigatran [2]
Cn1c(CNc2ccc(C(=N)N)cc2)nc2cc(C(=O)N(CCC(=O)O)c3ccccn3)ccc21 [dabigatran, N-[2-(4-Amidinophenylaminomethyl)-1-methyl-1H-benzimidazol-5-ylcarbonyl]-N-(2-pyridyl)-beta-alanine] | 51 | ~5 | ~10 | –
Cn1c(CNc2ccc(C(=N)N)cc2)nc2cc(C(=O)N(CCC(=O)OC3OC(C(=O)O)C(O)C(O)C3O)c3ccccn3)ccc21 (stereo not shown) [1-O-acylglucuronide] | – | – | – | equipotent prolongation
